According to ChEMBL document CHEMBL3507680, “University of Dundee, Gates Library screen for HepG2 cell viability”:

Assay: Human HepG2 cell viability assay in 384 well format
Assay type: toxicity, cell-based
Set-up: dose 125 nL, time 70.5 hour; concentration not given beside the values
Settings: HepG2 cells, read-out: Inhibition

Row | Compound | cytotoxicity at 70.5 h
1 | O=C(CSC1CCCC1)N1CCN(C(=O)C2CC2c2cccs2)CC1 (centres undefined) | 33.2%
2 | O=C(NCC(O)(c1ccco1)C1CC1)c1ccccc1F (centres undefined) | -14.8%
3 | Cn1cccc1C(O)CNC(=O)c1cccc(Cl)c1 (centres undefined) | -9.53%
4 | Cc1c(Cl)cccc1S(=O)(=O)NCC(O)c1cccn1C (centres undefined) | -3.24%
5 | Cc1ccsc1C(O)CNC(=O)Cc1ccc(S(=O)(=O)C(C)C)cc1 (centres undefined) | -13.3%
6 | COc1ccc(CC(C)(O)CNC(=O)Cc2cccs2)cc1 (centres undefined) | 11.8%
7 | O=S(=O)(NCC1(O)CCCC1)c1ccccc1Br | -0.293%
8 | CCCc1nnsc1C(=O)NCC(O)c1cccs1 (centres undefined) | -6.4%
9 | Cc1ccccc1NC(=O)NCC(C)(O)c1cccs1 (centres undefined) | 4.31%
10 | CCS(=O)(=O)N1CCN(CC(F)(F)F)CC1 | -5.53%
11 | O=C(Cn1cnc(-c2cccs2)cc1=O)Nc1cccnc1 | -4.25%
12 | CC(=O)Nc1ccc(C(=O)NCCCn2cccc2)cc1 | -14.1%
13 | O=C(NCC1(CO)CC1)c1ccccc1Br | -8.75%
14 | COCC(C)(O)CNC(=O)Nc1cccc(OC)c1OC (centres undefined) | -11%
15 | COC1COC2(CCN(C(=O)c3cocn3)CC2)C1 (centres undefined) | -8.06%
16 | O=C(C1CC1)N1CC[C@H]2C(=O)N(c3ccsc3)CCO[C@H]2C1 | -11.7%
17 | O=C(Nc1ccccc1)C1=NOC2(CCCNC2)C1 (centres undefined) | 18.4%
18 | CC(=O)N1CC2(CCN(C(=O)N(C)C)CC2)c2cc(C)ccc21 | 5.58%
19 | CN(Cc1cccnc1)C1CC2(CCN(C(=O)c3cscn3)CC2)C1 | 8.2%
20 | Cc1ccc(N2CCC3(CCN(Cc4csc(C)n4)CC3)CC2)nn1 | -6.42%
21 | Cn1cccc1C(=O)N1CCCC2(CCCN2S(C)(=O)=O)C1 (centres undefined) | -8.52%
22 | CC(=O)N1CC2(CCN(C(=O)CO)CC2)c2cc(C)ccc21 | -4.93%

Row | Compound | cytotoxicity at 70.5 h
23 | CS(=O)(=O)N1C[C@@H]2CCN(C(=O)c3ccco3)[C@@H]2C1 | -2.6%
24 | CS(=O)(=O)N1C[C@@H]2COC[C@@H](CC(=O)N3CCCCO3)[C@@H]2C1 | 5.89%
25 | Cc1ccnc(OC[C@@]23CCO[C@@H]2CCN(S(C)(=O)=O)C3)n1 | -7.11%
26 | CCOCC1CN(CCc2ccccc2)Cc2c1cnn2C (centres undefined) | 10.7%
27 | O=C(Cc1ccccn1)N1CCC2(CCCN(CC3CCOCC3)C2)C1 (centres undefined) | -0.432%
28 | Cc1ccc2c(c1)C1(CCN(S(C)(=O)=O)CC1)CN2C(=O)N(C)C | 4.29%
29 | Cc1nc([C@@H]2C[C@H]3CN(Cc4scnc4C)C[C@H]3O2)no1 | 5.82%
30 | Cc1nc(N2CCOCC2)nc2c1COCC21CCN(CC(C)C)C1 (centres undefined) | -5.39%
31 | CCCS(=O)(=O)N1Cc2nccn2CC(Cn2cccn2)C1 (centres undefined) | -2.32%
32 | CCOCC1CN(CCOCc2ccccc2)Cc2c1cnn2C (centres undefined) | -3.18%
33 | O=C(C1CCOC1)N1C[C@H]2CN(c3ccccc3)C(=O)[C@H]2C1 (some centres undefined) | -4.87%
34 | COc1nn(C)c2c1CCCN(S(=O)(=O)c1cccc(F)c1)C2 | -4.75%
35 | c1ccc(NC[C@@H]2CCC[C@@H]3CN(Cc4csnn4)C[C@@H]32)nc1 | -5.27%
36 | Cn1cnc(S(=O)(=O)N2CCO[C@H]3[C@@H](OCC4CC4)CC[C@@H]32)c1 | 11.1%
37 | O=C(NC[C@H]1OC[C@@H]2CCN(c3ccccn3)C[C@@H]21)c1ccco1 | -1.04%
38 | CCO[C@@H]1CC[C@H]2[C@H]1OCCN2S(=O)(=O)c1cn(C)cn1 | -1.5%
39 | O=C1Nc2ccccc2CC12CCN(CCO)C2 (centres undefined) | -6.04%
40 | O=C(c1c2c(N3CCCC3)ncnc2n2ccccc12)N1CCOCC1 | -5.97%
41 | CS(=O)(=O)N1CCOCC12CCN(c1nncs1)CC2 | 5.03%
42 | O=C(c1cscn1)N1CC[C@@H]2[C@@H]1CCN2c1ccccn1 | -2.32%
43 | O=C(Cn1nc(N2CCOCC2)ccc1=O)Nc1nccs1 | 15%
44 | CCOC(=O)N1CCN(C(=O)c2snnc2-c2ccc(OC)cc2)CC1 | -11.6%

Row | Compound | cytotoxicity at 70.5 h
45 | CCN1CCc2c(sc3c2C(=O)NC(/C=C/c2ccco2)N3)C1 (centres undefined) | 43.7%
46 | O=C(c1cn(-c2ccccc2Cl)nn1)N1CCSCC1 | 15.4%
47 | COc1cccc(CNC(=O)c2cccnc2N)c1 | 6.88%
48 | Nc1ncccc1C(=O)NCc1ccc(Br)cc1 | -2.61%
49 | Nc1ncccc1C(=O)NCc1cccc(Cl)c1 | -8.22%
50 | O=c1[nH]nc2c(N3CCCCCC3)nccn12 | -8.09%
51 | O=c1[nH]nc2c(N3CCOCC3)nccn12 | -11.6%
52 | COc1ccccc1-c1ccnc2nc(N3CCCCC3)[nH]c(=O)c12 | -15.7%
53 | COCCN1CCn2c(nc3cc(C(=O)NC(C)C)ccc32)C1 | -6.96%
54 | O=C(O)CNC(=O)Cc1csc(-c2cccc(Cl)c2)n1 | 21.1%
55 | CC(C)OCCCNC(=O)CN(c1ccc(F)c(F)c1)S(C)(=O)=O | -6.87%
56 | CC(C)C[C@H](NC(=O)Cc1csc(-c2cccc(Cl)c2)n1)C(=O)O | 19.2%
57 | C[C@H](NC(=O)Cc1csc(-c2cccc(Cl)c2)n1)C(=O)O | 19.3%
58 | O=C(CC1Cn2ncnc2NC1=O)Nc1ccc(F)c(F)c1 (centres undefined) | -7.69%
59 | CC(C)n1[nH]c(=O)c2c1NC(=O)CSC2c1cccc(OCC(N)=O)c1 (centres undefined) | -11.3%
60 | CC(C)n1c(=O)c2sccc2n(CC(=O)Nc2cccc(Cl)c2)c1=O | -12.8%
61 | O=C(CC1Cn2ncnc2NC1=O)Nc1cccc(C(F)(F)F)c1 (centres undefined) | -11.2%
62 | CC1=Nc2c(c(O)nn2C(C)C)C(c2cnn(C)c2)S1 (centres undefined) | -11%
63 | Cc1ccc(C)c(-c2[nH]c3ccccc3c2C(=O)O)c1 | -12.7%
64 | COc1ccc(C)cc1-c1[nH]c2ccccc2c1C(=O)O | -10.2%
65 | Cn1c(=O)[nH]c(=O)n2c(CC(=O)Nc3ccc(Cl)c(Cl)c3)cnc12 | -12.5%
66 | CCNC(=O)c1ccc2c(c1)nc1n2CCN(C(C)C)C1 | -9.53%

Row | Compound | cytotoxicity at 70.5 h
67 | CC(=O)N1CCN(C(=O)c2sc(-c3ccccc3F)nc2C)CC1 | 16.5%
68 | O=C1CC(c2ccsc2)c2sc(C(=O)O)c(-c3ccc(F)cc3)c2N1 (centres undefined) | -4.46%
69 | O=C(CSC1CCc2ccccc2NC1=O)NC1CC1 (centres undefined) | -2.66%
70 | O=C(Cn1ccc2c(Cl)cccc21)N1CCCC1 | -1.08%
71 | O=C(CSC1CCc2ccccc2NC1=O)NCCc1ccc(O)cc1 (centres undefined) | -2.27%
72 | CC(C)n1[nH]c(=O)c2c1NC(=O)CC2c1ccc(S(C)(=O)=O)cc1 (centres undefined) | -17.1%
73 | O=C(CSC1CCc2ccccc2NC1=O)NCc1ccccc1 (centres undefined) | 6.38%
74 | O=C(CN1CCN(CC(O)C2CC2)CC1)NCc1ccccc1 (centres undefined) | -8.44%
75 | OC(CN1CCN(Cc2ccccc2)CC1)C1CC1 (centres undefined) | -10.4%
76 | CC(C)N1CC[C@@H]2[C@H](COCC3CC3)CN(C)C(=O)[C@@H]2CC1 | 4.19%
77 | O=C(c1cnccn1)N1CC[C@@H]2CO[C@@H](CN3CCCC3)[C@@H]2C1 | -5.22%
78 | Cc1noc(C)c1CNCC1COCc2c(-c3ccoc3)nnn2C1 (centres undefined) | -9.07%
79 | CCc1ncnc2c1CCN(Cc1nccs1)CC2 | -7.4%
80 | CN(C)c1ncnc2c1CCN(Cc1nccs1)CC2 | -6.81%
81 | O=C(C[C@@H]1COC[C@H]2CN(C3CCCC3)C[C@@H]12)N1CCCCO1 | -0.83%
82 | O=S(=O)(NC[C@]12COC[C@H]1CN(CCc1ccccc1)C2)C1CC1 | -2.87%
83 | Cc1nc(N2CCCC2)nc2c1CCN(Cc1ccsc1)CC2 | 6.56%
84 | CCN1C[C@@H]2[C@@H](OC)CCN(C(=O)c3cc(C)nn3CC)[C@@H]2C1 | 8.5%
85 | CNC(=O)[C@H]1C[C@H]2OCC[C@H]2N(CCOc2ccc(Cl)cc2)C1 | -1.59%
86 | c1ncn(Cc2cn3c(n2)CN(CC2CCCCC2)CC3)n1 | -3.74%
87 | O=C(Cc1ccsc1)N1CCCC2(COCCN(CC3CC3)C2)C1 (centres undefined) | 1.23%
88 | O=C1[C@H]2CN(CC3CCOCC3)C[C@H]2CN1Cc1cccc(F)c1 | 4.65%

Row | Compound | cytotoxicity at 70.5 h
89 | CCOCC(=O)N1CCC2(CC1)COC(COCc1ccccn1)C2 (centres undefined) | 4.72%
90 | COCC(=O)N1CCC2(CC1)COC(COCc1ccccn1)C2 (centres undefined) | 1.98%
91 | Cc1nc(N2CCOCC2)nc2c1CCN(Cc1ccsc1)CC2 | 1.35%
92 | CCCS(=O)(=O)N1Cc2nccn2CC(CN(C)C)C1 (centres undefined) | -10.3%
93 | Cc1noc([C@@H]2C[C@H]3CN(Cc4scnc4C)C[C@H]3O2)n1 | -4.75%
94 | COc1cccc(C(=O)N2CC[C@@H]3[C@H](CC2)N(C)CCS3(=O)=O)c1 | -5.98%
95 | Cc1nc(N2CCCC2)nc2c1CCN(Cc1ccoc1)CC2 | -6.88%
96 | O=C(c1ccoc1)N1CCC2(CC1)COC(COc1ccccn1)C2 (centres undefined) | -4.94%
97 | CN(C)C(=O)[C@@H]1C[C@H]2OCC[C@H]2N(CCOc2ccc(Cl)cc2)C1 | -4.26%
98 | CCOCc1cnc2n1CCN(Cc1scnc1C)C2C (centres undefined) | -3.25%
99 | CN(C)[C@@H]1CCN(C(=O)NC2CCCC2)[C@H]1Cc1ccncc1 | -9.4%
100 | Cc1cccc(CN2C[C@H]3CCC[C@@]3(COCc3csc(C)n3)C2)n1 | -6.32%
101 | Cc1cccc(N2CCC3(CCN(Cc4ccccn4)CC3)CC2)n1 | -9.07%
102 | Cc1cccc(CN2CCc3c(COCC(=O)N(C)C)nn(C)c3C2)n1 | 0.676%
103 | CN(C)Cc1cn2c(n1)CN(CC1CCCC1)CC2 | -6.79%
104 | CC(C)(C)NC[C@@H]1CCC[C@@H]2CN(Cc3csnn3)C[C@@H]21 | -2.73%
105 | Cc1cnc(N2CC[C@@H]3CN(Cc4ccncc4)CCO[C@@H]3C2)nc1 | 8.21%
106 | c1ccc(N2CC[C@@H]3CN(Cc4ccncc4)CCO[C@@H]3C2)cc1 | -1.73%
107 | Cc1ncsc1CN1CCn2c(COc3cccnc3)cnc2C1C (centres undefined) | -2.69%
108 | CN(Cc1cccnc1)C[C@@H]1OC[C@H]2CN(Cc3ccoc3)CC[C@H]21 | -0.956%
109 | Cc1cc(CN2C[C@@H](N3CCN(C)CC3)[C@H]3OCCC[C@H]32)oc1C | -4.18%
